From US7902196B2, “Synthesis of avrainvillamide, strephacidin B, and analogues thereof” (President and Fellows of Harvard College, priority 2005, dated 2011)
Each block holds one compound with its values, some of them ahead of it.

Legend:
cell cycle = assay: effect of avrainvillamide on the cell cycle (FIG. 19); format: cell-based
[1] = tested on: multidrug-resistant bacteria; conditions: reported; cited from earlier work
[2] = decomposition of stephacidin B into avrainvillamide (FIG. 18); format: physicochemical
apoptosis and necrosis = assay: induction of apoptosis and necrosis (FIG. 20); format: cell-based
Procedure: FIG. 20 induces apoptosis at 1-4 μM and necrosis at 8 μM.

[3] = 1,5-addition of methanol-d4 to 2
[4] = tested on: cultured human cancer cells; conditions: reported for the fungal isolates; cited from earlier work
[5] = stability in solution protected from light
[6] = interconversion of stephacidin B (1) and 2 in solution; format: physicochemical; conditions: 50% DMSO-d6-CD3CN, 23° C.
Procedure: Our preliminary studies leave little doubt that 1 and 2 are readily interconverted in solution. For example, concentration of an acetonitrile-water solution of pure synthetic stephacidin B (1) at 38° C. afforded a 2:1 mixture of 2 and 1, as well as unidentified decomposition products. Also, whereas solutions of pure 1 in 50% DMSO-d6-CD3CN appeared to be stable for at least 48 h at 23° C. (The merits of the DMSO-d6-CD3CN solvent system in stabilizing stephacidin B were discussed in Qian-Cutrone et al. J. Am. Chem. Soc. 2002, 124, 14556; incorporated herein by reference.), addition of powdered 3-Å molecular sieves led to partial retro-dimerization, giving a 2:1 mixture of 1 and 2 within 1 h at 23° C. We also observed partial transformation of 1 to form 2 upon exposure to silica gel (2D-TLC analysis). From the data thus far it is clear that (−)-2 and (+)-1 readily interconvert under mild conditions. […] In theory, the converse may be true, though this seems less likely, simply upon consideration of concentration effects. Our results also leave open the possibility that stephacidin B is an artifact of the isolation of 2; the converse may be true instead, though this would appear to be less likely.

Compound: CC1(C)C=Cc2c(ccc3c2[N+]([O-])=C2C3=C[C@@]34NC(=O)[C@]5(CCCN5C3=O)C[C@H]4C2(C)C)O1 [avrainvillamide]
- effect on the cell cycle (cell cycle): induces arrest in G2/M
- antimicrobial activity [1]: anti-microbial activity against multidrug-resistant bacteria
- species present under physiological conditions [2]: major species present under physiological conditions
- concentration inducing apoptosis (apoptosis and necrosis): 1 to 4 µM
- concentration inducing necrosis (apoptosis and necrosis): 8 µM
- equilibrium constant, methanol-d4 adducts combined to 2 ([3]; 23° C., tentative): 7.7
- time to form the products of 1,5-addition of methanol-d4 ([3]; pure methanol-d4, 23° C.): < 10 min
- half-life ([3]; solution in pure methanol-d4): < 10 min
- antiproliferative activity [4]: exhibit antiproliferative activity

Compound: CC1(C)C=Cc2c(ccc3c2[N+]([O-])=C2C(C)(C)[C@@H]4C[C@]56CCCN5C(=O)C4(NC6=O)C4N5C(=O)C67CCCN6C(=O)[C@]56C(C7)C(C)(C)c5c(c7ccc8c(c7n5O)C=CC(C)(C)O8)[C@H]6C234)O1 (stereo partly drawn) [stephacidin B]
- avrainvillamide formed by decomposition of stephacidin B [2]: 1.7 equiv.
- antiproliferative activity [4]: exhibit antiproliferative activity

- time stable in solution ([5]; 37 mM solution in methylene-d2-chloride, 23° C., protected from light): at least 7 h
- stability upon concentration to dryness ([5]; 1H NMR analysis): decomposed within two hours
Compound: CC(C)(C)/C=C/C=[N+]([O-])c1ccccc1 [α-(trans-3,3-dimethyl-1-butenyl)-N-phenylnitrone]

Compound: CC1(C)C=Cc2c(ccc3c2[N+]([O-])=C2C3=C[C@@]34NC(=O)[C@]5(CCCN5C3=O)C[C@H]4C2(C)C)O1 [compound 1, avrainvillamide]
- antimicrobial activity [1]: antimicrobial activity against multidrug-resistant bacteria

Compound: avrainvillamide [compound 1]
- time solutions appeared stable [6]: at least 48 h
